Source: patent publication US7452887B2, “Quinoline- and isoquinoline-based compounds exhibiting ATP-utilizing enzyme inhibitory activity, and compositions, and uses thereof” (Amphora Discovery Corporation, priority 2004, dated 2008)

What was measured:
[1] = biological target: MAPKAPK2 (Homo sapiens, UniProt P49137); assay: HTS ATP-utilizing enzyme assay, off-chip mobility-shift (Caliper HTS 250); assay type: biochemical; settings: test compound 10 μM, kinase listed = active (greater than six-sigma from the mean activity of inactive compounds)
Summary of the method: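 Phosphorylation of a peptide substrate was quantified by Caliper mobility-shift separation of substrate and product after 2.5 h at 20-22 °C, with compounds tested at 10 μM. Inhibition was normalized to EDTA-quenched (100%) and DMSO (0%) controls; six-sigma thresholds flagged actives.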

[2] = biological target: T1, PRAK (Homo sapiens, UniProt Q8IW41); assay: as above; assay type: biochemical; settings: test compound 10 μM, kinase listed = active (greater than six-sigma from the mean activity of inactive compounds)
T1 sequence (Q8IW41 1-473): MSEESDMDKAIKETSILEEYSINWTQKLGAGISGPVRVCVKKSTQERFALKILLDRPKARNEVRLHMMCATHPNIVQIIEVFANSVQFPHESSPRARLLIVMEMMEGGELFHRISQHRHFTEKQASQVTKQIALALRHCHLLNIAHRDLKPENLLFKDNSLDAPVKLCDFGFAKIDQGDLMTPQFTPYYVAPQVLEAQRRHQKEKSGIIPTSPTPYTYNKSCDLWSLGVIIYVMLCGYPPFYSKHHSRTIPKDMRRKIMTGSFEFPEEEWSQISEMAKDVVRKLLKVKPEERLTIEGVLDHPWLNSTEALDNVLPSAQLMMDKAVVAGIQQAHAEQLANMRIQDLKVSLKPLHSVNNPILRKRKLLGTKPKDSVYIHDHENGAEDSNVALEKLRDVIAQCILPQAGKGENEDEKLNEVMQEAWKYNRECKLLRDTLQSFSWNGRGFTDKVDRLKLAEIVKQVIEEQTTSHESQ
Description: The following procedures describe the reagent and plate preparation for a HTS of an ATP-utilizing enzyme, such as a protein kinase, run in an off-chip mobility-shift assay format. The following provides an HTS protocol for running a protein kinase HTS screen on a Caliper HTS 250 microfluidics system. The following parameters are dependent on the protein kinase used and can be determined by one skilled in the art as part of a typical assay development process. For example, the peptide substrate used can be identified from the current literature, by screening a peptide library of potential protein kinase substrates, or by other applicable means accepted in the field.
The following table provides typical screen assay parameters appropriate for a Caliper HTS 250 microfluidics system.
The reagents and buffers listed in the following table are generally applicable for developing and running an HTS screen on a human protein kinase using the Caliper HTS 250 system.
The following reagents were prepared using the previously described buffers.
A 2× Master Buffer solution was prepared by combining 200 mL of 1 M HEPES, pH 7.5, 2 mL of 10% Triton X-100, 20 mL of 10% BSA, and 778 mL of H2O.
A 2.5× Substrate Buffer solution was prepared by combining 177.408 mL of 2× Master Buffer, 0.887 mL of 1 mM peptide-X, and 176.521 mL of H2O.
A 1.55× Termination Buffer solution was prepared by combining 762.05 mL of 2× Master Buffer, 95.1 mL of 0.5 M EDTA, and 666.94 mL of H2O.
A TCB Buffer solution was prepared by combining 125 mL of 2× Master Buffer, 10 mL of 0.5 M EDTA, 6.25 mL of 4% coating reagent, 1.01 mL of 100% DMSO, and 107.74 mL H2O.
A Dye Trough solution was prepared by combining 0.5 μL of peptide-X, and 2,999.5 μL of IX Master Buffer.
A 1.06× Assay Buffer solution was prepared by combining 205.15 mL of 2× Master Buffer, and 181.92 mL of H2O.
Assays to determine the kinase inhibitory activity of compounds of the present disclosure were performed using a Caliper HTS 250 microfluidics device, Greiner U-bottom assay plates, a Multidrop for transfer of reagents, and Biomek FX (AMNCBM03) software. Initially, 2.4 μL of a 1 mM solution of a test compound in 100% DMSO was added to a well of the Greiner U-bottom plate. A single Greiner U-bottom plate having 24×16 wells could include multiple test compounds. Next, […] of 1.06× Assay Buffer was added to each well of the assay plate. Using the Biomek FX, 10 μL of 0.5 M EDTA was added by the span-8 to wells, indicated as 100% Control and 2.4 μL of 100% DMSO was added by the span-8 to wells, indicated as 0% Control. Using the Multidrop, 10 μL of 2.5× Enzyme Buffer, followed by 10 μL of 2.5× Substrate Buffer was added to each well of the assay plate. The total reaction volume in each well was 25 μL, and the concentration of the test compound was 10 μM. The assay plate was incubated for 2.5 hrs at 20° C. to 22° C. After the incubation period, using the Multidrop, 45 μL of 1.55× Termination Buffer was added to each well of the assay plate to stop the reaction. The inhibition of the ATP-utilizing enzyme, such as a particular protein kinase, was determined by measuring the ratio of the peptide substrate to phosphorylated product for each well of the assay plate using the Caliper HTS 250 system.
The use of six-sigma statistical limits represents a conservative method for declaring potential hits among targets. The six-sigma activity, as well as the mean population activity, can be different for each target enzyme. This method has an expected false positive rate, from an in-control measurement process, of one in one million.

Chain of MAPKAPK2 (P49137 whole entry): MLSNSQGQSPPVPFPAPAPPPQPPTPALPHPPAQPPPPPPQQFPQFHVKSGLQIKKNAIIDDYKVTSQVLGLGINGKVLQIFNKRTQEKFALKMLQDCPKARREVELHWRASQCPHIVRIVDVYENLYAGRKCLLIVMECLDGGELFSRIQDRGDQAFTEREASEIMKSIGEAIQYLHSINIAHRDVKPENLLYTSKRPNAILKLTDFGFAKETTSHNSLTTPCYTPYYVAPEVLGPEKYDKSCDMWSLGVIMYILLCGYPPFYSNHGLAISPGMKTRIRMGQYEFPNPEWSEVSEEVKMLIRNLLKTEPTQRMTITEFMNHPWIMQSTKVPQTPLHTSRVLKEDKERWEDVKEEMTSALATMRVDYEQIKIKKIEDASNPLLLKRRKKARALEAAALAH

SMILES	Activity [1]	Activity [2]
CC(=O)c1ccc(-c2ccc3nccc(Nc4ccc(N5CCN(C)CC5)cc4)c3c2)s1 [1-(5-(4-(4-(4-methylpiperazin-1-yl)phenylamino)quinolin-6-yl)thiophen-2-yl)ethanone]	MAPKAPK2	PRAK
N#Cc1ccc(-c2ccc3nccc(Nc4ccc(N5CCN(CC(=O)O)CC5)cc4)c3c2)cc1 [2-(4-(4-(6-(4-cyanophenyl)quinolin-4-ylamino)phenyl)piperazin-1-yl)acetic acid]	MAPKAPK2	PRAK
OCCCN1CCN(c2ccc(Nc3ccnc4ccc(-c5ccccc5)cc34)cc2)CC1 [3-(4-(4-(6-phenylquinolin-4-ylamino)phenyl)piperazin-1-yl)propan-1-ol]	MAPKAPK2	PRAK
N#CCCN1CCN(c2ccc(Nc3ccnc4ccc(-c5ccccc5)cc34)cc2)CC1 [3-(4-(4-(6-phenylquinolin-4-ylamino)phenyl)piperazin-1-yl)propanenitrile]	MAPKAPK2	PRAK
CN(C)C1CCN(c2ccc(Nc3ccnc4ccc(-c5ccc(C#N)cc5)cc34)cc2)C1 (stereo not drawn) [4-(4-(4-(3-(dimethylamino)pyrrolidin-1-yl)phenylamino)quinolin-6-yl)benzonitrile]		PRAK
N#CCCN1CCN(c2ccc(Nc3ccnc4ccc(-c5ccc(C#N)cc5)cc34)cc2)CC1 [4-(4-(4-(4-(2-cyanoethyl)piperazin-1-yl)phenylamino)quinolin-6-yl)benzonitrile]	MAPKAPK2	PRAK
CCN1CCN(c2ccc(Nc3ccnc4ccc(-c5ccc(C#N)cc5)cc34)cc2)CC1 [4-(4-(4-(4-ethylpiperazin-1-yl)phenylamino)quinolin-6-yl)benzonitrile]	MAPKAPK2	PRAK
CCCN1CCN(c2ccc(Nc3ccnc4ccc(-c5ccc(C#N)cc5)cc34)cc2)CC1 [4-(4-(4-(4-propylpiperazin-1-yl)phenylamino)quinolin-6-yl)benzonitrile]	MAPKAPK2	PRAK
N#Cc1ccc(-c2ccc3nccc(Nc4ccc(N5CCNCC5)cc4)c3c2)cc1 [4-(4-(4-(piperazin-1-yl)phenylamino)quinolin-6-yl)benzonitrile]	MAPKAPK2	PRAK
COc1ccc(OC)c(-c2ccc3nccc(Nc4ccc(N5CCN(C)CC5)cc4)c3c2)c1 [6-(2,5-dimethoxyphenyl)-N-(4-(4-methylpiperazin-1-yl)phenyl)quinolin-4-amine]	MAPKAPK2	PRAK
CN1CCN(c2ccc(Nc3ccnc4ccc(-c5c(F)cccc5F)cc34)cc2)CC1 [6-(2,6-difluorophenyl)-N-(4-(4-methylpiperazin-1-yl)phenyl)quinolin-4-amine]	MAPKAPK2	PRAK
CN1CCN(c2ccc(Nc3ccnc4ccc(-c5ccccc5F)cc34)cc2)CC1 [6-(2-fluorophenyl)-N-(4-(4-methylpiperazin-1-yl)phenyl)quinolin-4-amine]	MAPKAPK2	PRAK
CN1CCN(c2ccc(Nc3ccnc4ccc(-c5ccc(F)c(F)c5)cc34)cc2)CC1 [6-(3,4-difluorophenyl)-N-(4-(4-methylpiperazin-1-yl)phenyl)quinolin-4-amine]	MAPKAPK2	PRAK
CN1CCN(c2ccc(Nc3ccnc4ccc(-c5cc(F)cc(F)c5)cc34)cc2)CC1 [6-(3,5-difluorophenyl)-N-(4-(4-methylpiperazin-1-yl)phenyl)quinolin-4-amine]	MAPKAPK2	PRAK
CN1CCN(c2ccc(Nc3ccnc4ccc(-c5cccc(F)c5)cc34)cc2)CC1 [6-(3-fluorophenyl)-N-(4-(4-methylpiperazin-1-yl)phenyl)quinolin-4-amine]	MAPKAPK2	PRAK
CC(C)c1cccc(-c2ccc3nccc(Nc4ccc(N5CCN(C)CC5)cc4)c3c2)c1 [6-(3-isopropylphenyl)-N-(4-(4-methylpiperazin-1-yl)phenyl)quinolin-4-amine]	MAPKAPK2	PRAK
CCCCc1ccc(-c2ccc3nccc(Nc4ccc(N5CCN(C)CC5)cc4)c3c2)cc1 [6-(4-butylphenyl)-N-(4-(4-methylpiperazin-1-yl)phenyl)quinolin-4-amine]	MAPKAPK2	PRAK
CN1CCN(c2ccc(Nc3ccnc4ccc(-c5ccc(Cl)cc5)cc34)cc2)CC1 [6-(4-chlorophenyl)-N-(4-(4-methylpiperazin-1-yl)phenyl)quinolin-4-amine]	MAPKAPK2	PRAK
CCOc1ccc(-c2ccc3nccc(Nc4ccc(N5CCN(C)CC5)cc4)c3c2)cc1 [6-(4-ethoxyphenyl)-N-(4-(4-methylpiperazin-1-yl)phenyl)quinolin-4-amine]	MAPKAPK2	PRAK
Cc1cc(F)ccc1-c1ccc2nccc(Nc3ccc(N4CCN(C)CC4)cc3)c2c1 [6-(4-fluoro-2-methylphenyl)-N-(4-(4-methylpiperazin-1-yl)phenyl)quinolin-4-amine]	MAPKAPK2	PRAK
COc1ccc(F)cc1-c1ccc2nccc(Nc3ccc(N4CCN(C)CC4)cc3)c2c1 [6-(5-fluoro-2-methoxyphenyl)-N-(4-(4-methylpiperazin-1-yl)phenyl)quinolin-4-amine]	MAPKAPK2	PRAK
COc1ccc(C(C)C)cc1-c1ccc2nccc(Nc3ccc(N4CCN(C)CC4)cc3)c2c1 [6-(5-isopropyl-2-methoxyphenyl)-N-(4-(4-methylpiperazin-1-yl)phenyl)quinolin-4-amine]	MAPKAPK2	PRAK
CCCN1CCN(c2ccc(Nc3ccnc4ccc(-c5ccccc5)cc34)cc2)CC1 [6-phenyl-N-(4-(4-propylpiperazin-1-yl)phenyl)quinolin-4-amine]	MAPKAPK2	PRAK
CN1CCN(c2ccc(Nc3ccnc4ccc(-c5cccc(C(F)(F)F)c5)cc34)cc2)CC1 [N-(4-(4-methylpiperazin-1-yl)phenyl)-6-(3-(trifluoromethyl)phenyl)quinolin-4-amine]		PRAK
CSc1ccc(-c2ccc3nccc(Nc4ccc(N5CCN(C)CC5)cc4)c3c2)cc1 [N-(4-(4-methylpiperazin-1-yl)phenyl)-6-(4-(methylthio)phenyl)quinolin-4-amine]		PRAK
CN1CCN(c2ccc(Nc3ccnc4ccc(-c5ccccc5)cc34)cc2)CC1 [N-(4-(4-methylpiperazin-1-yl)phenyl)-6-phenylquinolin-4-amine]		PRAK
